Measurements as given in PubChem BioAssay (NCI).
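In this assay, cells in 96-well plates receive the compound at five concentrations for 48 hours. Endpoints are linearly interpolated between the surrounding concentrations. The concentration for 50% growth inhibition is given as GI50. TGI marks complete inhibition of growth.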

Legend:
Test in all cases: inhibition of tumour cell growth, NCI panel, 48 h
[1] = tested on: NCI/ADR-RES ovarian
[2] = tested on: SK-OV-3 ovarian
[3] = tested on: RPMI-8226 leukemia
[4] = tested on: NCI-H460 lung
[5] = tested on: OVCAR-5 ovarian
[6] = tested on: RXF 393 renal
[7] = tested on: SK-MEL-5 melanoma
[8] = tested on: UACC-257 melanoma
[9] = tested on: SW-620 colon
[10] = tested on: EKVX NSCLC
[11] = tested on: OVCAR-4 ovarian
[12] = tested on: M14 melanoma
[13] = tested on: HCT-116 colon
[14] = tested on: CAKI-1 renal
[15] = tested on: OVCAR-3 ovarian
[16] = tested on: U251 CNS
[17] = tested on: TK-10 renal
[18] = tested on: SF-295 CNS
[19] = tested on: HCT-15 colon
[20] = tested on: A549 NSCLC
[21] = tested on: MDA-MB-231 breast
[22] = tested on: K-562 leukemia
[23] = tested on: HS 578T breast
[24] = tested on: SF-268 CNS
[25] = tested on: MOLT-4 leukemia
[26] = tested on: T-47D breast
[27] = tested on: SK-MEL-28 melanoma
[28] = tested on: HCC-2998 colon
[29] = tested on: 786-0 renal
[30] = tested on: NCI-H226 lung
[31] = tested on: MDA-MB-435
[32] = tested on: SN12C renal
[33] = tested on: UO-31 renal
[34] = tested on: KM12 colon
[35] = tested on: SK-MEL-2 melanoma
[36] = tested on: NCI-H23 lung
[37] = tested on: OVCAR-8 ovarian
[38] = tested on: MCF7 breast
[39] = tested on: ACHN renal
[40] = tested on: DU-145 prostate
[41] = tested on: SNB-75 CNS
[42] = tested on: MALME-3M melanoma
[43] = tested on: CCRF-CEM leukemia
[44] = tested on: NCI-H522 lung
[45] = tested on: HL-60(TB) leukemia
[46] = tested on: LOX IMVI melanoma
[47] = tested on: SR leukemia
[48] = tested on: HOP-92 NSCLC
[49] = tested on: A498 renal
[50] = tested on: COLO 205 colon
[51] = tested on: SNB-19 CNS
[52] = tested on: IGROV1 ovarian
[53] = tested on: UACC-62 melanoma
[54] = tested on: SF-539 CNS
[55] = tested on: HOP-62 NSCLC
[56] = tested on: PC-3 prostate
[57] = tested on: BT-549 breast
[58] = tested on: HT29 colon

Structure (SMILES): O=C(CC12CC3CC(CC(C3)C1)C2)NCCOCCOCCNC(=O)c1cc2c(o1)C(=O)c1ccccc1C2=O
- GI50 [1]: 2.07 µM
- TGI [1]: 5.87 µM
- GI50 [2]: 2.19 µM
- TGI [2]: 4.71 µM
- GI50 [3]: 1.56 µM
- TGI [3]: 4.43 µM
- GI50 [4]: 0.317 µM
- TGI [4]: 1 µM
- GI50 [5]: 1.69 µM
- TGI [5]: 3.09 µM
- GI50 [6]: 1.34 µM
- TGI [6]: 2.65 µM
- GI50 [7]: 0.176 µM
- TGI [7]: 0.328 µM
- GI50 [8]: 1.14 µM
- TGI [8]: 2.43 µM
- GI50 [9]: 1.21 µM
- TGI [9]: 2.87 µM
- GI50 [10]: 1.84 µM
- TGI [10]: 3.53 µM
- GI50 [11]: 0.839 µM
- TGI [11]: 2.08 µM
- GI50 [12]: 0.211 µM
- TGI [12]: 0.462 µM
- GI50 [13]: 1.58 µM
- TGI [13]: 4.96 µM
- GI50 [14]: 1.46 µM
- TGI [14]: 3.86 µM
- GI50 [15]: 0.243 µM
- TGI [15]: 0.72 µM
- GI50 [16]: 1.37 µM
- TGI [16]: 2.81 µM
- GI50 [17]: 3.06 µM
- TGI [17]: 5.27 µM
- GI50 [18]: 0.663 µM
- TGI [18]: 1.94 µM
- GI50 [19]: 0.867 µM
- TGI [19]: 2.39 µM
- GI50 [20]: 0.22 µM
- TGI [20]: 0.51 µM
- GI50 [21]: 1.53 µM
- TGI [21]: 5.68 µM
- GI50 [22]: 1.33 µM
- TGI [22]: 4.9 µM
- GI50 [23]: 1.43 µM
- TGI [23]: 5.18 µM
- GI50 [24]: 1.68 µM
- TGI [24]: 3.9 µM
- GI50 [25]: 1.97 µM
- TGI [25]: 4.98 µM
- GI50 [26]: 1.8 µM
- TGI [26]: 5.06 µM
- GI50 [27]: 1.58 µM
- TGI [27]: 3.09 µM
- GI50 [28]: 1.78 µM
- TGI [28]: 3.39 µM
- GI50 [29]: 2.05 µM
- TGI [29]: 4.7 µM
- GI50 [30]: 1.65 µM
- TGI [30]: 3.94 µM
- GI50 [31]: 0.185 µM
- TGI [31]: 0.343 µM
- GI50 [32]: 0.595 µM
- TGI [32]: 1.87 µM
- GI50 [33]: 1.5 µM
- TGI [33]: 3.09 µM
- GI50 [34]: 1.58 µM
- TGI [34]: 5.13 µM
- GI50 [35]: 1.6 µM
- TGI [35]: 3.86 µM
- GI50 [36]: 0.133 µM
- TGI [36]: 0.469 µM
- GI50 [37]: 0.813 µM
- TGI [37]: 11.6 µM
- GI50 [38]: 0.54 µM
- TGI [38]: 2.38 µM
- GI50 [39]: 1.35 µM
- TGI [39]: 2.72 µM
- GI50 [40]: 0.225 µM
- TGI [40]: 0.457 µM
- GI50 [41]: 1.56 µM
- TGI [41]: 2.9 µM
- GI50 [42]: 0.134 µM
- TGI [42]: 0.264 µM
- GI50 [43]: 2.27 µM
- TGI [43]: 13.1 µM
- GI50 [44]: 1.34 µM
- TGI [44]: 3.04 µM
- GI50 [45]: 1.22 µM
- TGI [45]: 4.61 µM
- GI50 [46]: 0.526 µM
- TGI [46]: 2.03 µM
- GI50 [47]: 1.08 µM
- TGI [47]: 6.55 µM
- GI50 [48]: 2.26 µM
- TGI [48]: 6.1 µM
- GI50 [49]: 1.6 µM
- TGI [49]: 3.16 µM
- GI50 [50]: 1.28 µM
- TGI [50]: 2.76 µM
- GI50 [51]: 0.841 µM
- TGI [51]: 3.11 µM
- GI50 [52]: 1.41 µM
- TGI [52]: 3.21 µM
- GI50 [53]: 0.271 µM
- TGI [53]: 0.748 µM
- GI50 [54]: 1.14 µM
- TGI [54]: 2.37 µM
- GI50 [55]: 1.52 µM
- TGI [55]: 2.86 µM
- GI50 [56]: 1.38 µM
- TGI [56]: 9.21 µM
- GI50 [57]: 1.23 µM
- TGI [57]: 2.51 µM
- GI50 [58]: 2.38 µM
- TGI [58]: 5.85 µM

Structure (SMILES): CCOc1ccc(NC(=O)Nc2cc(C(C)C)ccc2C)cc1
- GI50 [1]: 6.96 µM
- TGI [1]: 44.7 µM
- GI50 [2]: 12.3 µM
- TGI [2]: 35.4 µM
- GI50 [3]: 10.9 µM
- TGI [3]: > 65.8 µM
- GI50 [4]: 9.22 µM
- TGI [4]: > 100 µM
- GI50 [5]: 11.9 µM
- TGI [5]: > 76 µM
- GI50 [6]: 1.64 µM
- TGI [6]: 4.9 µM
- GI50 [7]: > 51.9 µM
- TGI [7]: > 100 µM
- GI50 [8]: 8.83 µM
- TGI [8]: 44.9 µM
- GI50 [9]: 11.2 µM
- TGI [9]: > 100 µM
- GI50 [10]: 8.55 µM
- TGI [10]: > 96.7 µM
- GI50 [11]: 3.33 µM
- TGI [11]: 11.5 µM
- GI50 [12]: 21.9 µM
- TGI [12]: > 100 µM
- GI50 [13]: 5.73 µM
- TGI [13]: 16.1 µM
- GI50 [14]: 6.35 µM
- TGI [14]: 28.2 µM
- GI50 [15]: 5.33 µM
- TGI [15]: 13.6 µM
- GI50 [16]: 5.89 µM
- TGI [16]: 17.8 µM
- GI50 [17]: 2.21 µM
- TGI [17]: 6.61 µM
- GI50 [18]: 7.45 µM
- TGI [18]: 25.4 µM
- GI50 [19]: 28.7 µM
- TGI [19]: > 100 µM
- GI50 [20]: 4.56 µM
- TGI [20]: 17.6 µM
- GI50 [21]: 3.79 µM
- TGI [21]: 15.8 µM
- GI50 [22]: 21.4 µM
- TGI [22]: > 100 µM
- GI50 [23]: 2.32 µM
- TGI [23]: 7.06 µM
- GI50 [24]: 4.36 µM
- TGI [24]: 14.7 µM
- GI50 [25]: 9.57 µM
- TGI [25]: > 100 µM
- GI50 [26]: 8.94 µM
- TGI [26]: > 100 µM
- GI50 [27]: 8.32 µM
- TGI [27]: 41.8 µM
- GI50 [28]: 11 µM
- TGI [28]: > 92.2 µM
- GI50 [29]: 2.64 µM
- TGI [29]: 6.72 µM
- GI50 [30]: 10.2 µM
- TGI [30]: 50.1 µM
- GI50 [31]: 17.6 µM
- TGI [31]: > 100 µM
- GI50 [32]: 5.15 µM
- TGI [32]: 24 µM
- GI50 [33]: 4.82 µM
- TGI [33]: 16.9 µM
- GI50 [34]: 11.6 µM
- TGI [34]: > 100 µM
- GI50 [35]: 18 µM
- TGI [35]: 55.6 µM
- GI50 [36]: 16.4 µM
- TGI [36]: 98.1 µM
- GI50 [37]: 3.67 µM
- TGI [37]: 14.8 µM
- GI50 [38]: 11.8 µM
- TGI [38]: > 57.8 µM
- GI50 [39]: 4.37 µM
- TGI [39]: 14.7 µM
- GI50 [40]: 9.57 µM
- TGI [40]: > 58.4 µM
- GI50 [41]: 2.82 µM
- TGI [41]: 10.2 µM
- GI50 [42]: 3.74 µM
- TGI [42]: 18.2 µM
- GI50 [43]: > 25.5 µM
- TGI [43]: > 100 µM
- GI50 [44]: 9.53 µM
- TGI [44]: 78.3 µM
- GI50 [45]: > 57.9 µM
- TGI [45]: > 100 µM
- GI50 [46]: 8.9 µM
- TGI [46]: > 100 µM
- GI50 [47]: 0.952 µM
- TGI [47]: > 22.9 µM
- GI50 [48]: 1.83 µM
- TGI [48]: 7.54 µM
- GI50 [49]: 3.65 µM
- TGI [49]: 18.6 µM
- GI50 [50]: 15.3 µM
- TGI [50]: > 100 µM
- GI50 [51]: 10.4 µM
- TGI [51]: 39 µM
- GI50 [52]: 6.37 µM
- TGI [52]: 15.7 µM
- GI50 [53]: 16.2 µM
- TGI [53]: > 89.8 µM
- GI50 [54]: 4.39 µM
- TGI [54]: 16.6 µM
- GI50 [55]: 8.78 µM
- TGI [55]: 22.8 µM
- GI50 [56]: 11.4 µM
- TGI [56]: > 58 µM
- GI50 [57]: 1.58 µM
- TGI [57]: 6.24 µM
- GI50 [58]: 32.8 µM
- TGI [58]: > 100 µM
